How the values were obtained:
Format in all cases: biochemical
[1] = target: T1, recombinant human PREP (Homo sapiens, UniProt P48147); assay: PREP inhibition, fluorogenic substrate Z-Gly-Pro-AMC; conditions: Inhibitory Activity (IC50, nM) PREP, 25° C., Z-Gly-Pro-AMC substrate
T1 construct: purchased R&D System
T1 sequence (P48147 1-710): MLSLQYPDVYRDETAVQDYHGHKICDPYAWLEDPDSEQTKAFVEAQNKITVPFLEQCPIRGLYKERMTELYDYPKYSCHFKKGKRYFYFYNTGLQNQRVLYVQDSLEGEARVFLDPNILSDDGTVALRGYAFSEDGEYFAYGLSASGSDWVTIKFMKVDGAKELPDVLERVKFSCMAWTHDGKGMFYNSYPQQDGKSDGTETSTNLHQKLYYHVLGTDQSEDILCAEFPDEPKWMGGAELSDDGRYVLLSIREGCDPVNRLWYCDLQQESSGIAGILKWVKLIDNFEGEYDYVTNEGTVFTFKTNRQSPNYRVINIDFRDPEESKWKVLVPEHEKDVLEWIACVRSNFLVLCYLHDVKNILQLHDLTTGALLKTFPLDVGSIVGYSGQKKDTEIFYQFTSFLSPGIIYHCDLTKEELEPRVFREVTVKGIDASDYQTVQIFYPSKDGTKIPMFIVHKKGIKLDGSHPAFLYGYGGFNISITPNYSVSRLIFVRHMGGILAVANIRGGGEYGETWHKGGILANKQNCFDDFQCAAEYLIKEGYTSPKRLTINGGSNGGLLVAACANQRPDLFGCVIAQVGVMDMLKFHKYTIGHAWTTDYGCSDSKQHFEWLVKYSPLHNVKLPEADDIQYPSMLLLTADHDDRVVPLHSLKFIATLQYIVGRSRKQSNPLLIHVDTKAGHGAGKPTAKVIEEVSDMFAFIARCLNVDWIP
Summary of the method: (§1)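 Inhibitors are titrated in an 8-point series into the enzyme's assay buffer (DMSO no more than 0.5%). Substrate cleavage at 25 °C is followed by fluorescence, excitation 380 nm and emission 460 nm. IC50 values come from a four-variable logistic model.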

[2] = target: T2, Recombinant human FAP (Homo sapiens, UniProt Q12884); assay: FAP inhibition, fluorogenic substrate Z-Gly-Pro-AMC; conditions: 25° C., Z-Gly-Pro-AMC substrate
T2 construct: purchased R&D systems
T2 sequence (Q12884 1-760): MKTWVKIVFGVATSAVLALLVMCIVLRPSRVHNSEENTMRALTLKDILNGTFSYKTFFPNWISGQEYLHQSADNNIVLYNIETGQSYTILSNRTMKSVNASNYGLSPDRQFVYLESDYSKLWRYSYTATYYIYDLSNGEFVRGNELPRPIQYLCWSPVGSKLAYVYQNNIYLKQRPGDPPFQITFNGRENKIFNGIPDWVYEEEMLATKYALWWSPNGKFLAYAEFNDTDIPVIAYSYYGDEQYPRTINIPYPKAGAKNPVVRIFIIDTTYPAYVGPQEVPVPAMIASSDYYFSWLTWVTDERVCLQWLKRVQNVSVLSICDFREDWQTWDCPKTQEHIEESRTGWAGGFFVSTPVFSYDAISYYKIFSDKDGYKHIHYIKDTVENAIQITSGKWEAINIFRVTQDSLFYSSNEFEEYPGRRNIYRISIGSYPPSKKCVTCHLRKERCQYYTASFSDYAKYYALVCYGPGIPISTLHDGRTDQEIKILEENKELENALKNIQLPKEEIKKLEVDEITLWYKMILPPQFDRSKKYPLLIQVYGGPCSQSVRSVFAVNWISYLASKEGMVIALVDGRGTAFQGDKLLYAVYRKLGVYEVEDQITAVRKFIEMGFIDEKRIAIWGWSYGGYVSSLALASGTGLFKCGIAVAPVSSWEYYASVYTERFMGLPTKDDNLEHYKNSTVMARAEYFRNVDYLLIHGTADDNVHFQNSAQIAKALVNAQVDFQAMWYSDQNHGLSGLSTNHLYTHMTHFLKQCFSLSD
Summary of the method: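 Eight-point compound dilutions (≤0.1% DMSO) were incubated at 25° C with 10 ng recombinant human FAP in Tris pH 7.5/1 M NaCl/BSA buffer and Z-Gly-Pro-AMC. Inhibition was taken as % drop in fluorescence rate (380/460 nm) against uninhibited control; IC50 came from a four-parameter logistic fit.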

[3] = target: T3, recombinant human DPP8 (Homo sapiens, UniProt Q6V1X1); assay: DPP8 inhibition, fluorogenic substrate Z-Ala-Pro-AMC; conditions: 25° C., Z-Ala-Pro-AMC substrate
T3 construct: purchased PBS Bioscience
Summary of the method: as §1

[4] = target: T4, recombinant human DPP9 (Homo sapiens, UniProt Q86TI2); assay: DPP9 inhibition, fluorogenic substrate H-Gly-Pro-AMC; conditions: 25° C., H-Gly-Pro-AMC substrate
T4 construct: purchased R&D Systems
Summary of the method: as §1

[5] = target: DPP4 (Homo sapiens, UniProt P27487); assay: DPP4 inhibition, fluorogenic substrate H-Gly-Pro-AMC; design: purchased R&D Systems; conditions: for IC50: 25° C., H-Gly-Pro-AMC substrate; for inhibition at 1 µM: read-out: hDPP4 inhibition % at 1 μM
[6] = target: T5, recombinant human DPP7 (Homo sapiens, UniProt Q9UHL4); assay: DPP7 inhibition, fluorogenic substrate Lys-Pro-AMC
T5 construct: purchased R&D Systems
Summary of the method: as §1

T3 sequence (Q6V1X1 whole entry): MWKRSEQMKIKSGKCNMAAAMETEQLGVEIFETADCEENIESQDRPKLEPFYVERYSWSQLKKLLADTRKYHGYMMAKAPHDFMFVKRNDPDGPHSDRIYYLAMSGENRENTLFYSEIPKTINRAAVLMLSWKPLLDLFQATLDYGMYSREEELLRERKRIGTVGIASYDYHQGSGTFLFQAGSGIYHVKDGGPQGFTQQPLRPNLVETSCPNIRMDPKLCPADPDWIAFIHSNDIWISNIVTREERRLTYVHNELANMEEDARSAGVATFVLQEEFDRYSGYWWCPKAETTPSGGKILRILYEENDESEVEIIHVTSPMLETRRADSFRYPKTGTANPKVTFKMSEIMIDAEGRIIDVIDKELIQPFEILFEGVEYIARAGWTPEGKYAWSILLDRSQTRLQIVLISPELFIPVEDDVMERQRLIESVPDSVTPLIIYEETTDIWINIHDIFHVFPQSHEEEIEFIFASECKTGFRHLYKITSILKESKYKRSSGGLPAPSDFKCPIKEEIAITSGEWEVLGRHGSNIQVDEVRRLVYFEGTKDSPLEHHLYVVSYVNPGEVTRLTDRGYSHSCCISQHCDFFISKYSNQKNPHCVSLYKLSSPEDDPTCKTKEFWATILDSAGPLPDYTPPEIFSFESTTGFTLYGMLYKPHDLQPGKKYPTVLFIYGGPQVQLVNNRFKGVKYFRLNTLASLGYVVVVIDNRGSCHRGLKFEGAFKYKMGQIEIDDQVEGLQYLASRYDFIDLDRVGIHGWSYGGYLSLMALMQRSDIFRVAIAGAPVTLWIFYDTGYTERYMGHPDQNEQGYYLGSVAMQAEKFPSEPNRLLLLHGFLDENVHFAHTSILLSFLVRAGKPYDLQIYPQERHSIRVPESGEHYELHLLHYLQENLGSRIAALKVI
T4 sequence (Q86TI2 whole entry): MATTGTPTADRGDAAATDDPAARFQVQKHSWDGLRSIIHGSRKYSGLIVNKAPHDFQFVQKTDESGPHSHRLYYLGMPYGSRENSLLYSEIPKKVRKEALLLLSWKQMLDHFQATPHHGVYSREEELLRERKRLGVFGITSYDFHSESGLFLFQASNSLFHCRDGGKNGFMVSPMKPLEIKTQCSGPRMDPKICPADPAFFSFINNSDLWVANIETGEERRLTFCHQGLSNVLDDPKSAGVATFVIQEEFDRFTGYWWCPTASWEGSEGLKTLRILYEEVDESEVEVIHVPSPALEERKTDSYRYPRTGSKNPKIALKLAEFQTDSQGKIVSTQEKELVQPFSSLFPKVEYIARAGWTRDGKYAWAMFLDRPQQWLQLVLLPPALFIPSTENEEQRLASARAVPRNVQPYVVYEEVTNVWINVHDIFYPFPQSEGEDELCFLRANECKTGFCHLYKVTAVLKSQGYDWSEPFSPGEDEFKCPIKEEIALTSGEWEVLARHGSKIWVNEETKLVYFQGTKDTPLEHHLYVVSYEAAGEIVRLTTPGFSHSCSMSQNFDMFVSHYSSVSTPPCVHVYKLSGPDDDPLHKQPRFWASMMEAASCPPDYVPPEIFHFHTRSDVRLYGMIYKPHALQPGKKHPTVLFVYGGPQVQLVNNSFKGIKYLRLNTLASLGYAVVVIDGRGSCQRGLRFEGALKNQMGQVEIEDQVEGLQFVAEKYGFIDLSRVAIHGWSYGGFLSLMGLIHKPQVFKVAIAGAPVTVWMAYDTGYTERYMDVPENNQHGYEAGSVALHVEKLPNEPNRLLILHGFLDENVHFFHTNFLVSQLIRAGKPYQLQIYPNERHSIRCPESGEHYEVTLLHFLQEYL
Sequence of DPP4 (P27487 whole entry): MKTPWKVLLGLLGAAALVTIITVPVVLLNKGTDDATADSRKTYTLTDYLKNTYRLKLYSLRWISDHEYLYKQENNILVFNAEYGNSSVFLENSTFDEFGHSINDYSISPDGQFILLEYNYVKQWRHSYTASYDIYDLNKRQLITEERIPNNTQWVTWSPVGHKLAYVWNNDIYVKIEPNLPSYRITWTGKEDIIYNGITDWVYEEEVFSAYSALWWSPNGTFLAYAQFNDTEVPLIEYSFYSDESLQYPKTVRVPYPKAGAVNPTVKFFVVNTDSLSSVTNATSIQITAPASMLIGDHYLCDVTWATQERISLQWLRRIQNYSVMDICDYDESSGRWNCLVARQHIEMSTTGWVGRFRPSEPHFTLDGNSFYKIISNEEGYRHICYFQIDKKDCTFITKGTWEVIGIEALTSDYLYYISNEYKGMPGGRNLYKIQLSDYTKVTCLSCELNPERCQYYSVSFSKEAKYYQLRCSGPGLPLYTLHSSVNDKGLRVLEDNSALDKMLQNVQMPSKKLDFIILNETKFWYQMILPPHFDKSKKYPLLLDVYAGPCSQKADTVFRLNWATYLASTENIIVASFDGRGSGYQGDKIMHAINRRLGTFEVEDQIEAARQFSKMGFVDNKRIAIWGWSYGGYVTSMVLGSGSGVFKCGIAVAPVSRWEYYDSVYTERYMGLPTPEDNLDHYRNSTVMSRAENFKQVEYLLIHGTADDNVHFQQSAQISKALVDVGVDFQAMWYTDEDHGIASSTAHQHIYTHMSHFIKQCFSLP

| Structure (SMILES) | IC50 [1] [nM] | IC50 [2] [µM] | IC50 [3] [µM] | IC50 [4] [µM] | IC50 [5] [µM] | IC50 [6] [µM] | hDPP4 inhibition % at 1 μM [5] | inhibition at 1 µM [5] [%] |
| --- | --- | --- | --- | --- | --- | --- | --- | --- |
| N#C[C@@H]1CC(F)(F)CN1C(=O)CN1CC[C@H](Oc2ccnc3cc(Cl)ccc23)C1 [Example 107, (S)-1-(2-((S)-3-((7-chloroquinolin-4-yl)oxy)pyrrolidin-1-yl)acetyl)-4,4-difluoropyrrolidine-2-carbonitrile] | 6500 | 0.00367 | 9.89 | 13.5 | > 1 | 0.0187 | – | – |
| N#C[C@@H]1CC(F)(F)CN1C(=O)CN1CC[C@H](Oc2ccc(Cl)c3cccnc23)C1 [Example 109, (S)-1-(2-((S)-3-((5-chloroquinolin-8-yl)oxy)pyrrolidin-1-yl)acetyl)-4,4-difluoropyrrolidine-2-carbonitrile] | 4140 | 0.0018 | 2.17 | 4.43 | > 1 | 0.0383 | – | – |
| N#C[C@@H]1CCCN1C(=O)CN1CCC(Nc2ccnc3ccccc23)CC1 [Example 111, (S)-1-(2-(4-(quinolin-4-ylamino)piperidin-1-yl)acetyl)pyrrolidine-2-carbonitrile] | 4170 | 0.00828 | 31.9 | 21.1 | – | 0.503 | No inhibition** | – |
| N#C[C@@H]1CC(F)(F)CN1C(=O)CN1CCC(Nc2cccc3ncccc23)CC1 [Example 114, (S)-4,4-difluoro-1-(2-(4-(quinolin-5-ylamino)piperidin-1-yl)acetyl)pyrrolidine-2-carbonitrile] | 31000 | 0.00094 | 1.53 | 3.4 | – | < 0.03 | – | 15.7 |
| N#C[C@@H]1C[C@@H]2C[C@@H]2N1C(=O)CN1CCC(Nc2cccc3ncccc23)CC1 [Example 115, (1S,3S,5S)-2-(2-(4-(quinolin-5-ylamino)piperidin-1-yl)acetyl)-2-azabicyclo[3.1.0]hexane-3-carbonitrile] | > 100000 | 0.00564 | 52.1 | 45.1 | – | 5.74 | – | 1.4 |
| N#C[C@@H]1CCCN1C(=O)CN1CCC(Oc2cccc3ncccc23)CC1 [Example 119, (S)-1-(2-(4-(quinolin-5-yloxy)piperidin-1-yl)acetyl)pyrrolidine-2-carbonitrile] | 3760 | 0.00145 | 60.4 | > 100 | – | 2.35 | No inhibition** | – |
| Cc1cnc2cccc(NC3CCN(CC(=O)N4CCC[C@H]4C#N)CC3)c2c1 [Example 121, (S)-1-(2-(4-((3-methylquinolin-5-yl)amino)piperidin-1-yl)acetyl)pyrrolidine-2-carbonitrile] | 73700 | 0.00184 | 48.1 | 46.9 | > 10 | 1.74 | – | – |
| Cc1ccc2ncccc2c1NC1CCN(CC(=O)N2CCC[C@H]2C#N)CC1 [Example 122, (S)-1-(2-(4-((6-methylquinolin-5-yl)amino)piperidin-1-yl)acetyl)pyrrolidine-2-carbonitrile] | 23700 | 0.445 | > 100 | > 100 | > 10 | > 100 | – | – |
| N#C[C@@H]1CCCN1C(=O)CN1CCC(Nc2cc(F)cc3ncccc23)CC1 [Example 123, (S)-1-(2-(4-((7-fluoroquinolin-5-yl)amino)piperidin-1-yl)acetyl)pyrrolidine-2-carbonitrile] | 20100 | 0.00241 | > 30 | 44.9 | > 10 | 1.28 | – | – |
| COc1cc(NC2CCN(CC(=O)N3CCC[C@H]3C#N)CC2)c2cccnc2c1 [Example 124, (S)-1-(2-(4-((7-methoxyquinolin-5-yl)amino)piperidin-1-yl)acetyl)pyrrolidine-2-carbonitrile] | 16100 | 0.00381 | 46.8 | 82.7 | > 10 | 0.518 | – | – |
| COc1ccc(NC2CCN(CC(=O)N3CCC[C@H]3C#N)CC2)c2cccnc12 [Example 125, (S)-1-(2-(4-((8-methoxyquinolin-5-yl)amino)piperidin-1-yl)acetyl)pyrrolidine-2-carbonitrile] | 28900 | 0.0055 | 33.7 | > 100 | > 10 | 5.55 | – | – |

These reach a lower IC50 [1]. Values come first.

| IC50 [1] [nM] | IC50 [2] [µM] | IC50 [3] [µM] | IC50 [4] [µM] | IC50 [5] [µM] | IC50 [6] [µM] | hDPP4 inhibition % at 1 μM [5] | inhibition at 1 µM [5] [%] | Structure (SMILES) |
| --- | --- | --- | --- | --- | --- | --- | --- | --- |
| 3150 | 0.00215 | 6.68 | 6.3 | > 1 | 0.0076 | – | – | N#C[C@@H]1CC(F)(F)CN1C(=O)CN1CC[C@H](Oc2cccc3[nH]c(=O)ccc23)C1 [Example 108, (S)-4,4-difluoro-1-(2-((S)-3-((2-oxo-1,2-dihydroquinolin-5-yl)oxy)pyrrolidin-1-yl)acetyl)pyrrolidine-2-carbonitrile] |
| 2930 | 0.00165 | 2.41 | 3.97 | – | 0.342 | – | 20 | N#C[C@@H]1C[C@H](F)CN1C(=O)CN1CCC(Nc2cccc3ncccc23)CC1 [Example 113, (2S,4S)-4-fluoro-1-(2-(4-(quinolin-5-ylamino)piperidin-1-yl)acetyl)pyrrolidine-2-carbonitrile] |
| 1040 | 0.00234 | 85.4 | > 100 | – | 10.2 | No inhibition** | – | N#C[C@@H]1CCCN1C(=O)CN1CCC(Oc2ccnc3ccccc23)CC1 [Example 118, (S)-1-(2-(4-(quinolin-4-yloxy)piperidin-1-yl)acetyl)pyrrolidine-2-carbonitrile] |
| 1130 | 0.00084 | 16.4 | 11 | 7.96 | 10.4 | – | – | N#C[C@@H]1C[C@H](F)CN1C(=O)CN1CCC(Oc2ccnc3ccc(F)cc23)CC1 [Example 126, (2S,4S)-4-fluoro-1-(2-(4-((6-fluoroquinolin-4-yl)oxy)piperidin-1-yl)acetyl)pyrrolidine-2-carbonitrile] |
| 621 | 0.00065 | 8.73 | 23.7 | > 10 | 9.23 | – | – | N#C[C@@H]1C[C@H](F)CN1C(=O)CN1CCC(Oc2ccnc3ccc(Cl)cc23)CC1 [Example 127, (2S,4S)-1-(2-(4-((6-chloroquinolin-4-yl)oxy)piperidin-1-yl)acetyl)-4-fluoropyrrolidine-2-carbonitrile] |
| 161 | 0.00266 | 9.84 | 4.85 | > 10 | 0.642 | – | – | COc1ccc2c(OC3CCN(CC(=O)N4C[C@@H](F)C[C@H]4C#N)CC3)ccnc2c1 [Example 129, (2S,4S)-4-fluoro-1-(2-(4-((7-methoxyquinolin-4-yl)oxy)piperidin-1-yl)acetyl)pyrrolidine-2-carbonitrile] |
